Laboratory results as given in PubChem BioAssay (NCI).
Several values for one entry are separate records, joined by “and”; a condition that tells them apart may be missing. Identical values can stand only once.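 Results reflect a 48-hour exposure of cells in 96-well plates to compound at five concentrations. Abbreviation: GI50, concentration required for 50% inhibition of growth. TGI: total growth inhibition.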

Tests used:
Experiment in all cases: NCI-60 cell line screen, 48 h
A549 NSCLC = tested on: A549 NSCLC
EKVX NSCLC = tested on: EKVX NSCLC
HL-60(TB) leukemia = tested on: HL-60(TB) leukemia
IGROV1 ovarian = tested on: IGROV1 ovarian
KM12 colon = tested on: KM12 colon
MCF7 breast = tested on: MCF7 breast
OVCAR-3 ovarian = tested on: OVCAR-3 ovarian
SN12C renal = tested on: SN12C renal
TK-10 renal = tested on: TK-10 renal
HS 578T breast = tested on: HS 578T breast

SMILES | TGI (A549 NSCLC) | TGI (EKVX NSCLC) | TGI (HL-60(TB) leukemia) | TGI (IGROV1 ovarian) | TGI (KM12 colon) | TGI (MCF7 breast) | TGI (OVCAR-3 ovarian) | TGI (SN12C renal) | TGI (TK-10 renal) | TGI (HS 578T breast) [µM] | GI50 (A549 NSCLC) [µM] | GI50 (EKVX NSCLC) [µM] | GI50 (HS 578T breast) [µM] | GI50 (IGROV1 ovarian) [µM] | GI50 (KM12 colon) [µM] | GI50 (MCF7 breast) [µM] | GI50 (OVCAR-3 ovarian) [µM] | GI50 (SN12C renal) [µM] | GI50 (TK-10 renal) [µM] | GI50 (HL-60(TB) leukemia) [µM]
O=C(O)C(C1NCCS1)N1Cc2ccccc2C1 (configuration not stated) | > 100 µM | > 100 µM | > 100 µM | > 100 µM | > 100 µM | > 100 µM | > 100 µM | > 100 µM | > 100 µM |  |  |  |  |  |  |  |  |  |  | 
CN(C)CCNc1ccccn1 | > 100 µM | > 100 µM | > 100 µM | > 100 µM | > 100 µM |  | > 100 µM | > 100 µM | > 100 µM | > 100 |  |  |  |  |  |  |  |  |  | 
CCCc1c(OC)c(O)c2c(=O)cc(OC)c3c4c(OC)cc(=O)c5c(O)c(OC)c(CCC)c(c1c23)c54 | 25.8 µM | 15.3 µM |  | 16.2 µM | 53.7 µM | 26.5 µM | 13.1 µM | 15.3 µM | > 100 µM |  |  |  |  |  |  |  |  |  |  | 
CC1CN=C(c2ccc3c(c2)Cc2cc(C4=NCC(C)N4)ccc2-3)N1 (configuration not stated) | > 100 µM | > 100 µM |  | > 100 µM | 56 µM | 65.3 µM | 53.7 µM | > 100 µM | > 100 µM | > 100 |  |  |  |  |  |  |  |  |  | 
CN(C)c1ccc(C(=C2C=CC(=[N+](C)C)C=C2)c2c(O)c(S(=O)(=O)[O-])cc3cc(S(=O)(=O)O)ccc23)cc1 | > 100 µM | > 100 µM |  | > 100 µM | > 100 µM | > 100 µM | > 100 µM | > 100 µM | > 100 µM | > 100 |  |  |  |  |  |  |  |  |  | 
CS(=O)(=O)c1nc(-c2cc3c(c(S(C)(=O)=O)n2)CCC3)cc2c1CCC2 | > 100 µM | > 100 µM | > 100 µM | 85.1 µM | > 100 µM |  | > 100 µM | > 100 µM | > 100 µM |  |  |  |  |  |  |  |  |  |  | 
O=C(/C=C/c1ccco1)c1ccc(Nc2ccnc3cc(Cl)ccc23)cc1 | > 100 µM | > 100 µM |  | > 100 µM | > 100 µM | 4.55 µM | > 100 µM | > 100 µM | > 100 µM | > 100 | > 100 | > 100 | > 100 | 15.2 | 3.17 | 1.46 | 4.73 | > 100 | > 100 | 
COc1ccc(/C=N/N=C(N)N)c(C(=O)O)c1OC | > 100 µM | > 100 µM | > 100 µM | > 10 µM | > 100 µM |  | > 100 µM | > 100 µM | > 100 µM |  |  |  |  |  |  |  |  |  |  | 
COC(=O)c1ccc2c(c1)CCN2C(=O)c1cc2c(cc1Br)OCO2 | 50 µM and > 100 µM | 50 µM and > 100 µM | 10.2 µM and 17.1 µM | 50 µM and > 100 µM | 50 µM and > 100 µM | 50 µM and > 100 µM | 3.99 µM and 1.43 µM | 48.3 µM and > 100 µM | 37.6 µM and > 100 µM |  | 3.27 | 3.77 |  | 0.455 | 0.532 | 0.567 | 0.363 | 3.21 | 27.1 | 0.31
CSCC[C@@H](NC(=O)[C@H](CC(C)C)NC(=O)C(Cc1cnc[nH]1)NC(=O)CNC(=O)[C@@H](NC(=O)[C@H](C)NC(=O)[C@H](Cc1cn(C=O)c2ccccc12)NC(=O)[C@H](CCC(N)=O)NC(=O)[C@@H](N)CC(N)=O)C(C)C)C(N)=O (some centres not stated) | > 100 µM | > 100 µM | > 100 µM | > 100 µM | > 100 µM | > 100 µM | > 100 µM | > 100 µM |  |  |  |  |  |  |  |  |  |  |  | 
O=C(/C=C/c1ccccc1O)CC(=O)/C=C/c1ccccc1O | 26.9 µM | 31.3 µM | 9.87 µM | 25.7 µM |  | 7.61 µM | 22.3 µM | 20.6 µM | > 100 µM | > 31.6 |  |  |  |  |  |  |  |  |  | 
C=CCn1c(-c2ccc(N=NNc3ccc(-c4n[nH]c(=S)n4CC=C)cc3)cc2)n[nH]c1=S | > 100 µM | > 100 µM |  | 15.1 µM |  | > 100 µM |  | > 100 µM | > 100 µM | > 100 |  |  |  |  |  |  |  |  |  | 
CCOC(=O)C(C(N)=O)c1nc2cc([N+](=O)[O-])ccc2nc1/C=C(\O)c1ccc(C)cc1 (configuration not stated) | > 74.1 µM | > 100 µM |  | 43 µM | > 100 µM | > 60.5 µM | 31.1 µM | 85.5 µM | 30.2 µM | 75.1 |  |  |  |  |  |  |  |  |  | 
C(=C/c1ccc2nc(-c3ccc(/C=C/C=N/NC4=NCCCN4)cc3)cn2c1)/C=N/NC1=NCCCN1 | 22 µM | 35.7 µM |  | > 100 µM | > 100 µM |  | > 100 µM | > 100 µM | > 100 µM | 42.2 |  |  |  |  |  |  |  |  |  | 
Brc1ccc2c(c1)[C@H]1CCc3c([nH]c4ccccc34)[C@H]1N2 | 47.4 µM | 22.6 µM |  | 15.6 µM | 18.6 µM | 18.6 µM | 25.3 µM | 27.2 µM | 23.3 µM | 46.5 |  |  |  |  |  |  |  |  |  | 
NC1=CN2c3ccccc3N(CC(=O)N3CCOCC3)C2C=C1 (configuration not stated) | > 100 µM | > 100 µM | > 100 µM | > 100 µM | > 100 µM | > 100 µM |  | > 100 µM | > 100 µM | > 100 |  |  |  |  |  |  |  |  |  | 
NC(=O)c1ncn(C2CCC(CP(=O)(O)O)C2)c1N (configuration not stated) | > 100 µM | > 100 µM |  | > 100 µM | > 100 µM | > 100 µM | > 100 µM | > 100 µM | > 100 µM | > 100 |  |  |  |  |  |  |  |  |  | 
CC(=O)Nc1ccc(S(=O)(=O)/N=c2/sc(S(N)(=O)=O)nn2C)cc1 | > 100 µM | > 100 µM | > 100 µM |  | > 100 µM |  | > 100 µM |  | > 100 µM |  |  |  |  |  |  |  |  |  |  | 
Cc1cc(CC(O)(C(F)(F)F)C(F)(F)F)cc(CC(O)(C(F)(F)F)C(F)(F)F)n1 | 10.9 µM | 10.8 µM | 7.85 µM | 11.2 µM | 5.13 µM |  | 2.76 µM | 9.25 µM | 13.6 µM | 8.23 |  |  |  |  |  |  |  |  |  | 
COC(=O)[C@@]12CC3CN(Cc4c1[nH]c1ccccc41)C2CC3=O | > 100 µM | > 100 µM | > 100 µM | > 100 µM | > 100 µM | > 100 µM | > 100 µM | > 100 µM | > 100 µM |  |  |  |  |  |  |  |  |  |  | 
c1ccc2c(c1)N=c1ccccc1=P21c2ccccc2Nc2ccccc21 | 15.3 µM | > 31.1 µM |  | 10.6 µM | 2.13 µM | 5.74 µM | 1.57 µM | 13.5 µM | 8.12 µM | 3.89 |  |  |  |  |  |  |  |  |  | 
